Laboratory results published in patent publication US20260209152A1, “Substituted Hydroxystilbene Compounds and Derivatives, Synthesis and Uses Thereof” (Kynan Duke IP, LLC, priority 2019, published 2026).
Read-outs that look alike come from different tables or passages of the source.

Key:
[1] = tested on: Colon SW_480; assay: CellTiter Glo cell viability assay; type: cell-based, human; conditions: for IC50: Homo sapiens
[2] = tested on: IL-17A secretion from human PBMC stimulated with antiCD3/antiCD28-coated beads; assay: PBMC IL-17 assay (assay number 1321); type: cell-based; conditions: for Max Eff.: IL-17 (1321): highest effect as percentage of control maximum effect
Method: Inhibition of IL-17A secretion from human PBMC stimulated with antiCD3/antiCD28-coated beads. LEO Pharma Open Innovation assay number 1321
The inflammatory skin disease psoriasis is characterized by cytokines IL-17A and TNFα. In the present assay, human peripheral blood mononuclear cells (PBMC) are stimulated with beads coated with antibodies against CD3 and CD28 to activate the T-cell receptor, and stimulated with IL-23 to promote T-helper17 activity. The cells are incubated for three days, then the secreted level of IL-17A is measured in the culture supernatant using AlphaLISA and the amount of living cells is measured by addition of resazurin (PrestoBlue®) to identify compounds that inhibit cell proliferation or viability. […] Compounds which inhibit IL-17A secretion may be expected to have efficacy in psoriasis.
• PBMC are isolated from fresh human buffy coats by centrifugation on Lymphoprep® following instructions from Sebmate® • Cells are spun down and resuspended in freezing medium (RPMI1640+20% FBS+5% DMSO) • Cells are frozen in aliquots of 8×10^7 cells/vial matching one 384 plate. Cells are placed in Coolcell box and placed in −80° C. freezer for one day. Vials are moved to the −150° C. freezer in a prechilled box.
• Prepare assay medium: RPMI1640+10% heat inactivated FBS and 1% pen/strep, supplemented with human IL-23, 20 ng/mL (R&D systems, cat no 1290-IL-010) • Test compounds: Prepare compound-containing source plate, i.e. titrations in DMSO to be transferred to the assay plate. • Add 70 nL compounds and controls from the source plate to the assay plate. • Thaw the cells by adding 1 vial to 20 ml warm assay medium • Centrifuge the cells down at 170 G in 10 minutes, remove the supernatant and resuspend in new medium. • Filter the cells though a 37 µm strainer. • Count the cells in the cell counter. • Beads (T Cell Activation/Expansion Kit-human, Miltenyi Biotech, cat. no. 130-091-441): Coat beads with antibodies (antiCD3 and antiCD28) according to the kit procedure. • Add the beads to the cells, one bead per cell, 2.1e+06 cells/ml. Use a pipette to mix the cells and beads carefully. • Seed the cell/bead mixture into the assay plate, 70 μL/well ([…]) • Place the plates in a humidity chamber with lid (24.5×24.5 cm box added H2O in the bottom). • Incubate plates at 37° C., 5% CO2/95% air for 3 days.
• IL-17A concentration in the supernatants is measured using an alphaLISA kit (Perkin Elmer, cat no. AL219F). • Pretest to find optima dilution of samples: Test 5 μL supernatant from control wells and run IL-17A alphaLISA assay with only 2 hours of incubation. • When data are available, remove assay plates from incubation and equilibrate to room temperature for 30 minutes. • Transfer 5 μL or corrected amounts of supernatant to a 384-proxy plate • Add 5 μL alphaLISA acceptor beads. • Incubate 1 hour at room temperature • Add 5 μL donor beads • Incubate overnight at room temperature protected from light. • Add 7 μL PrestoBlue reagent (resazurin)/well to the assay plate and incubated for 2-4 hours at 37° C./5% CO2. The fluorescence in the wells is measured (Ex615/Em 535).
IL-17A concentration in the supernatants is measured using an alphaLISA kit (Perkin Elmer, cat no. AL219F).
The capacity of the test compound to inhibit IL-17A release is normalized to the signal in the negative control wells treated with a toxic compound, Terfenadine.

[3] = Cell viability in T-cell IL-2 & IL-4 assay (assay number 1299); type: cell-based, human; conditions: human, human CD4-positive T-cells
Method: (§1) Then the level of secreted of IL-4 is measured in the culture supernatant using electrochemiluminescence (MSD kits, Meso Scale Discovery), IL-2 is measured by proximity homogenous time-resolved fluorescence (HTRF) and the amount of living cells is measured by addition of resazurin (PrestoBlue®) to allow identifying compounds that inhibit T-cell proliferation or viability.
(§2) • Remove plates from incubation and equilibrate to room temperature for 30 minutes. • IL-4 concentration in 10 μL supernatant is measured using an MSD IL-4 384-plate kit (Custom made) according to manufacturer protocol. • IL-2 concentrations in the supernatant is measured by an IL-2 HTRF kit, CisBio, cat. No 62HIL02PEH. • Add 4 μL medium to white proxi 384-well plates • Add 1 μL supernatant. • Add 4 μL mHTRF mix (each diluted 1:300 in ⅔ reconstitution buffer and ⅓ assay medium). • Spin the plates for 1 minute at 170 g • Seal and incubate overnight and read fluorescence in a plate reader • The amount of viable cells is measured by PrestoBlue® reagent • Add 15 μL diluted PrestoBlue® reagent (resazurin) corresponding to 2.5 μL Prestoblue/well to the assay plate. • Incubate overnight at 37° C./5% CO2. The fluorescence in the wells is measured (Ex615/Em 535).
(§3) The level of living cells in the wells is measured by the addition of PrestoBlue® and the conversion of Resazurin to Resorufin (fluorescent) in living cells is measured.
(§4) The effect of the test compounds on viability/proliferation is normalized to the PrestoBlue signal in the negative control wells treated with a toxic compound, Terfenadine.

[4] = tested on: human CD4-positive T-cells; assay: as above; type: cell-based; conditions: Homo sapiens, CD4 positive
Method: as §1, §2, §3, §4

[5] = tested on: Kidney ACHN; assay: CellTiter Glo cell viability assay; type: cell-based; conditions: Homo sapiens; ACHN/CRL-1611; 11 dilutions 3-0.00001 μM
[6] = SW480, 72 h, 3 Days of treatment, 18 2-fold dilutions 5-0.00003 μM, read-out: Average IC50
[7] = SW480/CCL-228, 11 dilutions 3-0.00001 μM, read-out: IC50
[8] = inhibition of IL-17A secretion, human PBMC, read-out: Abs EC50: IL-17 (1321)
[9] = maximum reduction of cell viability in T-cell IL-2 & IL-4 assay, read-out: Max Eff.: Viab (1299)
[10] = cell viability in T-cell IL-2 & IL-4 assay, read-out: Abs EC50: Viab (1299)
[11] = T-cell IL-2 & IL-4 assay, read-out: maximum reduction of cell viability
[12] = T-cell IL-2 & IL-4 assay, read-out: EC50, cell viability

Compound	IC50 [5] [nM]	IC50 [1, 6] [nM]	IC50 ([1]; SW480, 72 h, Day 3 upon drug treatment, 10 dosages 0.0001-20 μM, read-out: IC50) [nM]	IC50 [1, 7] [nM]	Max Eff.: IL-17 (1321) [2] [%]	EC50 [2, 8] [nM]	cytotoxicity [3, 9] [%]	EC50 [4, 10] [nM]	Fold IC50 ([1]; IC50 of 1 [KYN-001] vs 8 [KYN-119], 3 Days)	reduction of IL-17A release, in words [2]	cytotoxicity [3, 11] [%]	EC50 [4, 12] [nM]	EC50 ([2]; Homo sapiens, PBMC, read-out: EC50, inhibition of IL-17A secretion) [nM]	Emax ([2]; Homo sapiens, PBMC, read-out: maximum efficacy, IL-17A secretion) [%]
CCOc1cc(O)cc(/C=C/c2ccc(O)c(O)c2)c1CC=C(C)C [Compound 20, (E)-4-(3-Ethoxy-5-hydroxy-2-(3-methylbut-2-en-1-yl)styryl)benzene-1,2-diol]	83.4	–	–	158	85	1650	15	5000	–	–	–	–	–	–
COc1cc(/C=C/c2cc(O)cc(OC)c2CC=C(C)C)ccc1NC=O [Compound 27, (E)-N-(4-(5-hydroxy-3-methoxy-2-(3-methylbut-2-en-1-yl)styryl)-2-methoxyphenyl)formamide]	26.7	–	–	89.6	65	2120	–	4350	–	significantly less effective	52	4350	–	–
CCOc1cc(O)cc(/C=C/c2ccc(NC=O)c(OC)c2)c1CC=C(C)C [Compound 28, (E)-N-(4-(3-Ethoxy-5-hydroxy-2-(3-methylbut-2-en-1-yl)styryl)-2-methoxyphenyl)formamide]	18.8	–	–	30	73	526	–	2360	–	low potency reduction of IL-17A release	60	2360	526	73
COc1cc(/C=C/c2cc(O)cc(OC)c2CC=C(C)C)ccc1NC(=O)CN [Compound 31, (E)-2-amino-N-(4-(5-hydroxy-3-methoxy-2-(3-methylbut-2-en-1-yl)styryl)-2-methoxyphenyl)acetamide]	–	–	–	–	53	4870	19	5000	–	–	–	–	–	–
CCOc1cc(O)cc(/C=C/c2ccc(NC(=O)C(=O)O)c(OC)c2)c1CC=C(C)C [Compound 35, (E)-2-((4-(3-Ethoxy-5-hydroxy-2-(3-methylbut-2-en-1-yl)styryl)-2-methoxyphenyl)amino)-2-oxoacetic acid]	–	–	–	–	19	5000	7	5000	–	–	–	–	–	–

The next lines start with results.

IC50 [5] [nM]	Compound	IC50 [1, 6] [nM]	IC50 ([1]; SW480, 72 h, Day 3 upon drug treatment, 10 dosages 0.0001-20 μM, read-out: IC50) [nM]	IC50 [1, 7] [nM]	Max Eff.: IL-17 (1321) [2] [%]	EC50 [2, 8] [nM]	cytotoxicity [3, 9] [%]	EC50 [4, 10] [nM]	Fold IC50 ([1]; IC50 of 1 [KYN-001] vs 8 [KYN-119], 3 Days)	reduction of IL-17A release, in words [2]	cytotoxicity [3, 11] [%]	EC50 [4, 12] [nM]	EC50 ([2]; Homo sapiens, PBMC, read-out: EC50, inhibition of IL-17A secretion) [nM]	Emax ([2]; Homo sapiens, PBMC, read-out: maximum efficacy, IL-17A secretion) [%]
241	COc1cc(/C=C/c2cc(O)cc(OC)c2CC=C(C)C)ccc1O [Compound 1, (E)-3-(4-hydroxy-3-methoxystyryl)-5-methoxy-4-(3-methylbut-2-en-1-yl)phenol]	179	298	225	54	4430	35	5000	–	–	–	–	–	–
75.7	CCOc1cc(O)cc(/C=C/c2ccc(O)c(OC)c2)c1CC=C(C)C [Compound 8, (E)-3-Ethoxy-5-(4-hydroxy-3-methoxystyryl)-4-(3-methylbut-2-en-1-yl)phenol]	17.9	–	109	69	1550	46	5000	10	–	–	–	–	–
